Data from patent publication EP1101492A1, “NOVEL REMEDIES FOR ALLERGIC DISEASES” (FUJI YAKUHIN KOGYO KABUSHIKI KAISHA, priority 1998, dated 2000).

Assays:
[1] = tested on: mouse experimental atopic dermatitis models; assay: Auricle edema in experimental atopic dermatitis model (anti-DNP IgE sensitization, DNFB elicitation); type: in vivo, Balb/c mice; conditions: 60 µg/ear/dose in ethanol painted on auricles twice a day, 1 hour pre-elicitation, 6 hours, 1 to 6 days post-elicitation; for % Inhibition vLPR: 7 or 8 days post-elicitation; for % Inhibition IPR: 1 hour post-elicitation; for % Inhibition LPR: 1 day post-elicitation
Protocol: Intravenous injection of an anti-2,4-dinitrophenol (DNP) antibody (anti-DNP Ab, monoclonal IgE Ab; its antibody titer was 1 : 512 to 1 : 1024 by a rat heterologous passive cutaneous anaphylaxis reaction using a Wister rat) into a tail vein of female Balb/c mice (7-week old, body weight: 17 to 20 g, purchased from JAPAN SLC, Inc.) at a dose of […] per animal raised passive sensitization. Twenty four hours post-sensitization, 0.1% 2,4-dinitrofluorobenzene (DNFB; Nacalai Tesque, Inc.) in ethanol was painted onto both sides of a pair of mouse auricles at a dose of 10µL per each side for elicitation.
Fresh unsensitized mice were painted with 0.1% DNFB in ethanol onto their ear in the same manner as aforementioned and served as a control group. Not only immediately prior to elicitation but also 1 hour, 5 hours, daily between Days 1 and 14, and on Day 16 post-elicitation, ear thickness was measured using a dial thickness gauge (Peacock Co.). Each degree of auricle edemas was calculated: Auricular Edema (µm)=(Ear Thickness Post-Elicitation, µm) - (Ear Thickness immediately prior to Elicitation, µm) [formula]
Balb/c mice were passively sensitized with anti-DNP IgE Ab in the same manner as in Example 1. Twenty four hours later, 0.1% DNFB in ethanol was painted onto both sides of a pair of mouse auricles at a dose of 10 µL per each side for elicitation.
Immediately prior to elicitation, 1 hour and on Day 1 post-elicitation, auricle thickness was measured in the same manner as in Example 1. Each therapeutic efficacy is recorded as a percent inhibition wherein the "auricle edema (untreated group)" is used as a control. Auricle Edema Inhibition (%) = [ 1 -(Auricle Edema (Treated Group))/(Auricle Edema (Untreated Group))] × 100 (%) [formula]
Immediately prior to elicitation, and on Day 7 post-elicitation, auricle thickness was similarly measured. Each therapeutic efficacy is recorded as a percent inhibition wherein the auricle edema in the untreated group is used as a control.
Immediately prior to elicitation, and on Day 7 post-elicitation, auricle thickness was similarly measured. Each therapeutic efficacy is recorded as a percent inhibition wherein the auricle edema (untreated group) is used as a control.
Immediately prior to elicitation, at 1 and 4 hours and on Days 1, 3 and 7 post-elicitation, auricle thickness was similarly measured. From each auricle edema (µm) based on the auricle thickness immediately prior to elicitation, especially a prophylactically therapeutic efficacy of the test compound was evaluated.
Immediately prior to elicitation, at 0.5, 1 and 4 hours and on Days 1, 3 and 7 post-elicitation, auricle thickness was similarly measured. Each amount of auricle edemas was calculated (average± standard deviation).

[2] = tested on: mouse experimental atopic dermatitis models; assay: Scratching behavior in experimental atopic dermatitis model; type: in vivo, mice; conditions: for % Inhibition (scratching behavior) / Scratching Behavior (Times) (Average± Deviation): 0.1% solution in ethanol, 10 µL per side painted 1 hour pre-elicitation; for % Inhibition (scratching behavior): counts for 15 to 30 and 30 to 45 min post-elicitation, vs solvent control; for Scratching Behavior (Times) (Average± Deviation): counts for the 15 to 30 min and 30 to 45 min post-elicitation durations, 3 animals per group, solvent control 209.0 ± 70.4
allergic peritonitis = assay: Allergic peritonitis induced with ovalbumin (peritoneal exudate cells); type: in vivo, Balb/c mice; conditions: ovalbumin
Protocol: Twenty four hours after induction, mice were sacrificed under ether […] and each penitoneal cavity was lavaged twice or thrice with a washout medium (total volume: 5 mL, physiological saline containing 10 units/mL of heparin). Peritoneal exudate cells (PEC) were harvested in a siliconized glass tube. The retrieved washout medium was measured for its yield (mL) and the number of exudate cells therein by using Turk solution and counting on a haemocytometer and a total number of PEC was calculated. An aliquot thereof (an extent of approximately 20,000 cells of PEC) was taken. Specimens for staining were prepared using Cytospin 3 (CHANDON), and PEC was stained with Dif-Quick solution (International Reagents Corporation). After staining, PEC was subjected to fractional counts under a microscope with classification into eosinophils, neutrophils, lymphocytes/macrophages and basophils based on their form and stain nature (more than 500 PEC per specimen were randomly counted). […] After counting, intraperitoneal exudation inhibition rates were calculated by the following formula and expressed as the therapeutic efficacies: Inhibition Rate (%) =[1 -((PEC in Sensitized/Drug-Treated Mouse) - (PEC in Unsensitized/Saline-Treated Mouse))/((PEC in Sensitized/Saline-Treated Mouse) - (PEC in Unsensitized/Saline-Treated Mouse))]× 100 [formula]
A physiological saline solution containing ovalbumin (0.25 mg/mL) and an aluminum hydroxide gel (4 mg/mL) was administered subcutaneously to male Balb/c mice (7 weeks old, 20 to 23 g, purchased from JAPAN SLC, Inc.) twice at one week interval at a single dose of 0.4 mL for sensitization. On Day 14 after the initial sensitization, an antigen solution for induction (2.5 µg/mL) was administered intraperitoneally to each animal at a dose of 0.4 mL to raise allergic peritonitis. Compound No. 130 (30 mg/kg) or a negative control solvent, physiological saline (10 mL/kg), was administered intraperitoneally to each animal 5 minutes prior to induction, 3 and 6 hours post-induction.
Similarly to Example 24, the peritoneal cavities were lavaged to retrieve PEC. The drained liquids were measured for their yield and total PEC number therein. In the same manner as in Example 24, PEC was stained and subjected to fractional counting under a microscope based on their form. […] Similarly to Example 24, basophils and neutrophils were excluded from subjects to be examined. In the same manner as in Example 24, intraperitoneal exudation inhibition rates were calculated and expressed as the therapeutic efficacies.
In the same manner as in Example 25, male Balb/c mice were sensitized with ovalbumin and an aluminum hydroxide gel, and, on Day 14 after the initial sensitization, treated with an antigen solution to raise allergic peritonitis. Compound No. […]
Similarly to Example 24, the peritoneal cavities were lavaged to retrieve PEC 24 hours after induction. The drained liquids were measured for their yield and total PEC number therein.

[3] = tested on: guinea pig experimental bronchial asthma models; assay: Experimental bronchial asthma model (ovalbumin inhalation): airway resistance and asthmatic death;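 further: female Std:Hartley guinea pigs sensitized by inhaling nebulized ovalbumin once daily for 8 consecutive days, 8 to 11 animals per group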; conditions: test compounds 15 mg/kg s.c. (Compound No. 114: 30 mg/kg), prednisolone 10 mg/kg orally
[4] = 30 mg/kg s.c., lavage 24 hours post-induction
[5] = 24 and 2 hours prior to elicitation, vs solvent control
[6] = 30 mg/kg s.c. 1 hour prior to induction and 3 hours post-induction, lavage 6 hours post-induction

Row | SMILES | % Inhibition vLPR [1] [%] | % Inhibition IPR [1] [%] | % Inhibition LPR [1] [%] | % Inhibition (scratching behavior) [2] [%] | Scratching Behavior (Times) (Average± Deviation) [2] | Leukocyte exudate inhibition rate (%) (Macrophages)/(Lymphocytes) (allergic peritonitis; [4]) | Leukocyte exudate inhibition rate (%) Eosinophils (allergic peritonitis; [4]) [%] | Leukocyte exudate inhibition rate (%) Total PEC Number (allergic peritonitis; [4]) [%] | % Survival ([3]; asthmatic death within several minutes after elicitation, water for injection 54.5, 0.5% methyl cellulose 66.7) [%] | % Amelioration in Airway Resistance, 1 Hour after Elicitation [3, 5] [%] | % Amelioration in Airway Resistance, 6 Hours after Elicitation [3, 5] [%] | % Amelioration in Airway Resistance, Immediately after Elicitation [3, 5] [%] | inhibitory efficacy on scratching in the 20 to 40 min post-elicitation duration ([2]; 0.3% Compound No. 125 vs 0.1% tacrolimus painted on auricles) | efficacy on mouse scratching behavior (FIG. 9) ([2]; 0.3% ethanolic solution, 10 µL per side painted on auricles 5 minutes pre-elicitation, observed 2 hours) | Leukocyte exudate inhibition rate (%) Eosinophils (allergic peritonitis; [6]) [%] | Leukocyte exudate inhibition rate (%) Neutrophils (allergic peritonitis; [6]) [%] | Leukocyte exudate inhibition rate (%) Total PEC Number (allergic peritonitis; [6]) [%]
1 | CC(C)C[C@@H](C(=O)N[C@@H](Cc1ccc(CN)cc1)C(=O)O)C(CCCc1ccccc1)C(=O)NO.Cl (mixture of isomers) [Compound No. 114, N^a-[4-(N-Hydroxyamino)-2(R)-isobutyl-3(RS)-(3-phenylpropyl)succinyl]-L-4'-aminomethylphenylalanine · 1 hydrochloride] | 52 | 71 | 62 | 30.3 | 345.7 ± 47.1 | 29.0 | 37.5 | 33.4 | 70.0 | 39.4 | 69.4 | 54.0 | – | – | – | – | –
2 | CNC(=O)[C@H](Cc1ccc(N=C(N)N)cc1)NC(=O)C(CC(C)C)[C@H](CCCc1ccccc1)C(=O)NO.Cl (single isomer, unassigned) [Compound No. 125, N -[4-(N-Hydroxyamino)-2(R or S)-isobutyl-3(S)-(3-phenyltrimethylene)succinyl]-L-4'-guanidophenylalanine-N-methylamide 1 hydrochloride] | 31 | 56 | 58 | 40.7 | 124.0 ± 43.6 | 55.1 | 38.9 | 49.6 | – | – | – | – | higher than that of tacrolimus | apparently inhibits mouse scratching behavior | 38.4 | 41.4 | 40.9
3 | CNC(=O)[C@H](CCCCN)NC(=O)[C@H](CC(C)C)C(CCCc1ccc(C(=O)OC)cc1)C(=O)NO.Cl (single isomer, unassigned) [Compound No. 129, N-[4-(N-Hydroxyamino)-2(R)-isobutyl-3(R or S)-[3-(p-methoxycarbonylphenyl)propyl)succinyl]-L-lysine N-methylamide 1 hydrochloride] | 35 | 28 | 53 | 31.1 | 144.0 ± 48.8 | 37.7 | 30.2 | 35.1 | – | – | – | – | – | – | 39.9 | 125.7 | 109.1
4 | CNC(=O)[C@H](Cc1ccc(N=C(N)N)cc1)NC(=O)[C@@H](CC(=O)NO)CC(C)C.O=S(=O)(O)O [Compound No. 122, N-[4-(N-Hydroxyamino)-2(R)-isobutylsuccinyl]-L-4'-guanidophenylalanine-N-methylamide 1 sulfate] | 35 | 31 | 22 | 54.1 | 96.0 ± 32.6 | – | – | – | – | – | – | – | – | – | – | 27.1 | 38.6
5 | COC(=O)[C@H](Cc1ccc(CN)cc1)NC(=O)[C@H](CC(C)C)[C@H](CCCc1ccccc1)C(=O)NO.Cl [Compound No. 132, N-[4-(N-Hydroxyamino)-2(R)-isobutyl-3(S)-(3-phenylpropyl)succinyl]-L-4'-aminomethylphenylalanine methyl ester 1 hydrochloride] | 46 | 20 | 39 | 49.9 | 104.7 ± 30.6 | 34.0 | 24.3 | 31.6 | – | – | – | – | – | – | – | – | –
